In patent US9539341B2, “Methods and compositions for targeting adipose cells in mammals” (Board of Regents, the University of Texas System, priority 2011, dated 2017):
Where two headings read alike, the source gives them in different places.

Experiments:
[1] = Maximal tolerable dose (MTD) with increasing peptide doses; format: in vivo, mice
Excerpt: (§1) In some embodiments targeting peptides selective for angiogenic vasculature in adipose tissue could be used to treat obesity associated disorders, for example for weight reduction or for preventing weight gain. […] Because brown adipose tissue more vascularized, a vasculature based targeting approach would be very effective for delivery of therapeutic reagents to BAT for activation of this tissue.
When the therapeutic treatment of adipose associated body composition or body weight disorders such as obesity, lypodystrophy, diabetes or metabolic syndrome, fibrosis and cancer is contemplated, the appropriate dosage may also be determined using animal studies to determine the maximal tolerable dose, or MTD, of a bioactive agent per kilogram weight of the test subject. In general, at least one animal species tested is mammalian. Those skilled in the art regularly extrapolate doses for efficacy and avoiding toxicity to other species, including human. Before human studies of efficacy are undertaken, Phase I clinical studies help establish safe doses.
(§2) This reduction was due to the targeted depletion of ASC through apoptotic cell death as evidenced at 48 hrs after injection (see FIG. 14).

[2] = test system: cells from the kidney or peripheral blood; assay: In vivo apoptosis in non-target tissues, APO-TRACE and flow cytometry; design: species or system mice; details: 2 mg injected, 48 hrs
Excerpt: FIG. 15 illustrates that apoptosis induced by treatment with cytotoxic WAT7-KLAKLAK2 (SEQ ID NO:13-SEQ ID NO:31) all-D-peptide was limited to target tissue. APO-TRACE reagent (Sigma) and flow cytometry were used to detect apoptosis induction in both subcutaneous and intraperitoneal WAT cells, but not in cells from the kidney or peripheral blood.
as §1, §2

[3] = target: T1, recombinant bacterially-purified mouse ΔDCN (Mus musculus, UniProt P28654); assay: ELISA binding assay, ΔDCN; details: His6-tagged protein coated at 10 μg/ml
T1 construct: cloning fragments encoding amino acids 1-354 and 45-354 of mouse DCN cDNA (OriGene); His6; made in house
T1 sequence (P28654 45-354): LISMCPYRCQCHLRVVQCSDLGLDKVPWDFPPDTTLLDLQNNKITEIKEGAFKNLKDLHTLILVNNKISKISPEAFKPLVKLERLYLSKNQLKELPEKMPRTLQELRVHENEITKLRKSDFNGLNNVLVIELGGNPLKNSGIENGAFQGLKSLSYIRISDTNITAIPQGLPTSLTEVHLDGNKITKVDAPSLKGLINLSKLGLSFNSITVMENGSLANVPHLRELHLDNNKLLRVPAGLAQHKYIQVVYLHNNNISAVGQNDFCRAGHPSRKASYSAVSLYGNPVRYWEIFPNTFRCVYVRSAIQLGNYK
Excerpt: (§3) Immunoblotting and Binding Assays: Protein preparations resolved on SDS-PAGE were blotted onto Immobilon-FL membrane (Millipore), blocked with Odyssey blocking buffer (Licor Biosciences), and probed (in PBS/0.05% Triton X-100) with goat anti-DCN (R&D Systems, 1:1,000), rabbit anti-ANX2A (Aviva, 1:1,000), rabbit anti-mouse b-actin (Abcam, 1:10,000) antibodies, or pre- and post-immune antisera against WAT7 (1:1,000) as indicated. Signal was detected by Odyssey imaging system using anti-goat IRDye 800CW or anti-rabbit IRDye 680 both from Licor Biosciences. Bovine DCN was from Sigma-Aldrich, NS0-derived murine DCN was from R&D Systems. Murine DCN cDNA was generated from WAT total RNA using SuperScript kit (Invitrogen). For bacterial expression, full-length mouse core DCN and ΔDCN isoforms were produced by cloning fragments encoding amino acids 1-354 and 45-354 of mouse DCN cDNA (OriGene) or of CLIC4 cDNA (OriGene) in-frame with the His6Tag into pET28a vector, respectively. His6-tagged proteins were purified with His-Tag kit (Novagen). […] Bound peptides or FLAG-resistin were probed with corresponding rabbit anti-peptide Genemed antibodies (1:2,000) or rabbit anti-FLAG antibodies (Sigma-Aldrich, 1:2,000) followed by secondary goat anti-rabbit HRP-conjugated antibodies (Millipore, 1:5,000) and signal detection with Ultra-TMB (Pierce) substrate and measurement of absorbance at 450 nm. […]

[4] = target: T2, full-length glycosylated mouse DCN (mDCN*) (Mus musculus, UniProt P28654); assay: ELISA binding assay, glycosylated mouse DCN; details: compared with BSA background
T2 construct: full-length glycosylated mouse DCN (mDCN*); purchased R&D Systems; host or cells: NS0
T2 sequence (P28654 31-354): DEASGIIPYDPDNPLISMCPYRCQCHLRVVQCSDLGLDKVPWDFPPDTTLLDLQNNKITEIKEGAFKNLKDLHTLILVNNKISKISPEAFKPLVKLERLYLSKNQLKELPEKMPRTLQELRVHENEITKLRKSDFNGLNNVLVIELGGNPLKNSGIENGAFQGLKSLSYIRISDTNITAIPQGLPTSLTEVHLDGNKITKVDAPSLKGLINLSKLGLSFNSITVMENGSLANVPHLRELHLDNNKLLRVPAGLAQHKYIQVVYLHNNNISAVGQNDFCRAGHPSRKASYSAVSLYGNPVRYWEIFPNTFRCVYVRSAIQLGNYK
Excerpt: as §3

[5] = target: T3, glycosylated bovine DCN (bDCN*) (Bos taurus, UniProt P21793); assay: ELISA binding assay, glycosylated bovine DCN; details: compared with BSA background
T3 construct: purchased Sigma-Aldrich
Excerpt: as §3

T3 sequence (P21793 31-360): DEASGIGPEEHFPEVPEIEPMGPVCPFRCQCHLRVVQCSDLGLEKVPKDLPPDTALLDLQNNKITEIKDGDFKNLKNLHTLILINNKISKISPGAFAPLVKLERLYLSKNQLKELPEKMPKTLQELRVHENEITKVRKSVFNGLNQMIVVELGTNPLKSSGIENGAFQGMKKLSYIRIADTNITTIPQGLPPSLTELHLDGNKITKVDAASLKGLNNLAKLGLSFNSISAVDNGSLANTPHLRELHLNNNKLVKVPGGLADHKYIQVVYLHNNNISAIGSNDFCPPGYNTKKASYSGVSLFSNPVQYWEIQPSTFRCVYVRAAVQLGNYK

## CC(C)C[C@@H](NC(=O)[C@@H](CCCCN)NC(=O)CCCCCNC(=O)[C@H]1CSSC[C@@H](N)C(=O)N[C@H](CO)C(=O)N[C@H](Cc2c[nH]c3ccccc23)C(=O)N[C@H](CCCCN)C(=O)N[C@H](Cc2ccc(O)cc2)C(=O)N[C@H](Cc2c[nH]c3ccccc23)C(=O)N[C@H](Cc2ccccc2)C(=O)NCC(=O)N[C@H](CCC(=O)O)C(=O)N1)C(=O)N[C@H](C)C(=O)N[C@H](CCCCN)C(=O)N[C@H](CC(C)C)C(=O)N[C@H](C)C(=O)N[C@H](CCCCN)C(=O)N[C@H](CCCCN)C(=O)N[C@H](CC(C)C)C(=O)N[C@H](C)C(=O)N[C@H](CCCCN)C(=O)N[C@H](CC(C)C)C(=O)N[C@H](C)C(=O)N[C@H](CCCCN)C(=O)O [WAT7-KLAKLAK2]
[1]
  MTD: No MTD was reached
[1]; mouse, in vivo, read-out: MTD
  MTD: > 100 mg/kg
[2]
  apoptotic cell death in kidney or peripheral blood: no apoptotic cell death was identified

B1: Resistin: FLAG-tagged mouse resistin produced in HEK293 cells; WAT-secreted adipokine, ligand of ΔDCN (protein)
chain: SSMPLCPIDEAIDKKIKQDFNSLFPNAIKNIGLNCWTVSSRGKLASCPEGTAVLSCSCGSACGSWDIREEKVCHCQCARIDWTAARCCKLQVAS
[3]
  binding to ΔDCN (OD450): dose-dependent
[4]
  binding to glycosylated mouse DCN (OD450): completely inefficient in binding
[5]
  binding to glycosylated bovine DCN (OD450): completely inefficient in binding
